Calls of active or inactive are those of the source. No rule for the calls is given here.

The subject of the data set is CCRIS mutagenicity, Ames/micronucleus/aberration tests. Briefly: CCRIS mutagenicity studies.
[1] abbreviates: Test System: AMES SALMONELLA TYPHIMURIUM, Strain/Indicator: TA100, Metabolic Activation: NONE, Method: STANDARD PLATE.
Setting [2] is: Test System: AMES SALMONELLA TYPHIMURIUM, Strain/Indicator: TA98, Metabolic Activation: NONE, Method: STANDARD PLATE.

On to `Cc1ccc(Cl)cc1`, for which the mutagenic call (Test System: AMES SALMONELLA TYPHIMURIUM, Strain/Indicator: TA97, Metabolic Activation: HAMSTER, LIVER, S-9, AROCLOR 1254 (10%), Method: PREINCUBATION) was “inactive; negative”; the mutagenic call (Test System: AMES SALMONELLA TYPHIMURIUM, Strain/Indicator: TA97, Metabolic Activation: HAMSTER, LIVER, S-9, AROCLOR 1254 (30%), Method: PREINCUBATION) is “inactive; negative”; the mutagenic call (Test System: AMES SALMONELLA TYPHIMURIUM, Strain/Indicator: TA97, Metabolic Activation: NONE, Method: PREINCUBATION) is “inactive; negative”; the mutagenic call (Test System: AMES SALMONELLA TYPHIMURIUM, Strain/Indicator: TA97, Metabolic Activation: RAT, LIVER, S-9, AROCLOR 1254 (10%), Method: PREINCUBATION) was “inactive; negative”; the mutagenic call (Test System: AMES SALMONELLA TYPHIMURIUM, Strain/Indicator: TA97, Metabolic Activation: RAT, LIVER, S-9, AROCLOR 1254 (30%), Method: PREINCUBATION) was “inactive; negative”; the mutagenic call (Test System: AMES SALMONELLA TYPHIMURIUM, Strain/Indicator: TA98, Metabolic Activation: HAMSTER, LIVER, S-9, AROCLOR 1254 (10%), Method: PREINCUBATION) is “inactive; negative”. For the same compound, the mutagenic call reads like this: (Test System: AMES SALMONELLA TYPHIMURIUM, Strain/Indicator: TA98, Metabolic Activation: HAMSTER, LIVER, S-9, AROCLOR 1254 (30%), Method: PREINCUBATION) “inactive; negative”; (Test System: AMES SALMONELLA TYPHIMURIUM, Strain/Indicator: TA98, Metabolic Activation: NONE, Method: PREINCUBATION) “inactive; negative”; (Test System: AMES SALMONELLA TYPHIMURIUM, Strain/Indicator: TA98, Metabolic Activation: RAT LIVER S-9, PHENOBARBITAL AND BETA-NAPHTHOFLAVONE, Method: PREINCUBATION) “inactive; negative”; (Test System: AMES SALMONELLA TYPHIMURIUM, Strain/Indicator: TA98, Metabolic Activation: RAT, LIVER, S-9, AROCLOR 1254 (10%), Method: PREINCUBATION) “inactive; negative”; (Test System: AMES SALMONELLA TYPHIMURIUM, Strain/Indicator: TA98, Metabolic Activation: RAT, LIVER, S-9, AROCLOR 1254 (30%), Method: PREINCUBATION) “inactive; negative”; (Test System: AMES SALMONELLA TYPHIMURIUM, Strain/Indicator: TA100, Metabolic Activation: HAMSTER, LIVER, S-9, AROCLOR 1254 (10%), Method: PREINCUBATION) “inactive; negative”. Further, the mutagenic call by setting is: (Test System: AMES SALMONELLA TYPHIMURIUM, Strain/Indicator: TA100, Metabolic Activation: HAMSTER, LIVER, S-9, AROCLOR 1254 (30%), Method: PREINCUBATION) “inactive; negative”; (Test System: AMES SALMONELLA TYPHIMURIUM, Strain/Indicator: TA100, Metabolic Activation: NONE, Method: PREINCUBATION) “inactive; negative”; (Test System: AMES SALMONELLA TYPHIMURIUM, Strain/Indicator: TA100, Metabolic Activation: RAT LIVER S-9, PHENOBARBITAL AND BETA-NAPHTHOFLAVONE, Method: PREINCUBATION) “inactive; negative”; (Test System: AMES SALMONELLA TYPHIMURIUM, Strain/Indicator: TA100, Metabolic Activation: RAT, LIVER, S-9, AROCLOR 1254 (10%), Method: PREINCUBATION) “inactive; negative”; (Test System: AMES SALMONELLA TYPHIMURIUM, Strain/Indicator: TA100, Metabolic Activation: RAT, LIVER, S-9, AROCLOR 1254 (30%), Method: PREINCUBATION) “inactive; negative”; (Test System: AMES SALMONELLA TYPHIMURIUM, Strain/Indicator: TA102, Metabolic Activation: NONE, Method: PREINCUBATION) “inactive; negative”. The mutagenic call was “inactive; negative” (Test System: AMES SALMONELLA TYPHIMURIUM, Strain/Indicator: TA102, Metabolic Activation: RAT LIVER S-9, PHENOBARBITAL AND BETA-NAPHTHOFLAVONE, Method: PREINCUBATION); “inactive; negative” (Test System: AMES SALMONELLA TYPHIMURIUM, Strain/Indicator: TA104, Metabolic Activation: NONE, Method: PREINCUBATION); “inactive; negative” (Test System: AMES SALMONELLA TYPHIMURIUM, Strain/Indicator: TA104, Metabolic Activation: RAT LIVER S-9, PHENOBARBITAL AND BETA-NAPHTHOFLAVONE, Method: PREINCUBATION); “inactive; negative” (Test System: AMES SALMONELLA TYPHIMURIUM, Strain/Indicator: TA1535, Metabolic Activation: HAMSTER, LIVER, S-9, AROCLOR 1254 (10%), Method: PREINCUBATION); “inactive; negative” (Test System: AMES SALMONELLA TYPHIMURIUM, Strain/Indicator: TA1535, Metabolic Activation: HAMSTER, LIVER, S-9, AROCLOR 1254 (30%), Method: PREINCUBATION); “inactive; negative” (Test System: AMES SALMONELLA TYPHIMURIUM, Strain/Indicator: TA1535, Metabolic Activation: NONE, Method: PREINCUBATION). The mutagenic call by setting is: (Test System: AMES SALMONELLA TYPHIMURIUM, Strain/Indicator: TA1535, Metabolic Activation: RAT LIVER S-9, PHENOBARBITAL AND BETA-NAPHTHOFLAVONE, Method: PREINCUBATION) “inactive; negative”; (Test System: AMES SALMONELLA TYPHIMURIUM, Strain/Indicator: TA1535, Metabolic Activation: RAT, LIVER, S-9, AROCLOR 1254 (10%), Method: PREINCUBATION) “inactive; negative”; (Test System: AMES SALMONELLA TYPHIMURIUM, Strain/Indicator: TA1535, Metabolic Activation: RAT, LIVER, S-9, AROCLOR 1254 (30%), Method: PREINCUBATION) “inactive; negative”; (Test System: AMES SALMONELLA TYPHIMURIUM, Strain/Indicator: TA1537, Metabolic Activation: HAMSTER, LIVER, S-9, AROCLOR 1254 (30%), Method: PREINCUBATION) “inactive; negative”; (Test System: AMES SALMONELLA TYPHIMURIUM, Strain/Indicator: TA1537, Metabolic Activation: NONE, Method: PREINCUBATION) “inactive; negative”; (Test System: AMES SALMONELLA TYPHIMURIUM, Strain/Indicator: TA1537, Metabolic Activation: RAT LIVER S-9, PHENOBARBITAL AND BETA-NAPHTHOFLAVONE, Method: PREINCUBATION) “inactive; negative”. Also, the mutagenic call was “inactive; negative” (Test System: AMES SALMONELLA TYPHIMURIUM, Strain/Indicator: TA1537, Metabolic Activation: RAT, LIVER, S-9, AROCLOR 1254 (30%), Method: PREINCUBATION); “inactive; negative” (Test System: E.COLI, Strain/Indicator: WP2UVRA/PKM101, Metabolic Activation: NONE, Method: PREINCUBATION); “inactive; negative” (Test System: E.COLI, Strain/Indicator: WP2UVRA/PKM101, Metabolic Activation: RAT LIVER S-9, PHENOBARBITAL AND BETA-NAPHTHOFLAVONE, Method: PREINCUBATION); “inactive; negative” (Test System: E.COLI, Strain/Indicator: WP2UVRA, Metabolic Activation: NONE, Method: PREINCUBATION); “inactive; negative” (Test System: E.COLI, Strain/Indicator: WP2UVRA, Metabolic Activation: RAT LIVER S-9, PHENOBARBITAL AND BETA-NAPHTHOFLAVONE, Method: PREINCUBATION).
`CCCC(=O)Nc1snc2ccccc12`: the mutagenic call is “inactive; negative” under setting [1] and “inactive; negative” (Test System: AMES SALMONELLA TYPHIMURIUM, Strain/Indicator: TA100, Metabolic Activation: S-9, Method: STANDARD PLATE).
For `c1ccc(COC[C@@H]2CO2)cc1`, the mutagenic call under setting [1] was “active; positive”.
Turning to `C[C@]12CCC=C(C=O)[C@@]1(C=O)C2`, the mutagenic call reads like this: under setting [2], “active; positive”; under setting [1], “active; positive”.
On to `C[n+]1c2n(c(=O)c3ccccc31)CCc1c-2[nH]c2ccccc12`, for which the mutagenic call runs as follows: under setting [2], “inactive; negative”; (Test System: AMES SALMONELLA TYPHIMURIUM, Strain/Indicator: TA98, Metabolic Activation: RAT LIVER S-9, AROCLOR 1254 (10%), Method: STANDARD PLATE) “inactive; negative”; under setting [1], “inactive; negative”; (Test System: AMES SALMONELLA TYPHIMURIUM, Strain/Indicator: TA100, Metabolic Activation: RAT LIVER S-9, AROCLOR 1254 (10%), Method: STANDARD PLATE) “inactive; negative”; (Test System: AMES SALMONELLA TYPHIMURIUM, Strain/Indicator: TA1535, Metabolic Activation: NONE, Method: STANDARD PLATE) “inactive; negative”; (Test System: AMES SALMONELLA TYPHIMURIUM, Strain/Indicator: TA1535, Metabolic Activation: RAT LIVER S-9, AROCLOR 1254 (10%), Method: STANDARD PLATE) “inactive; negative”. For the same compound, the mutagenic call by setting is: (Test System: AMES SALMONELLA TYPHIMURIUM, Strain/Indicator: TA1537, Metabolic Activation: NONE, Method: STANDARD PLATE) “inactive; negative”; (Test System: AMES SALMONELLA TYPHIMURIUM, Strain/Indicator: TA1537, Metabolic Activation: RAT LIVER S-9, AROCLOR 1254 (10%), Method: STANDARD PLATE) “inactive; negative”.

The values are drawn from PubChem BioAssay AID1259407 (Chemical Carcinogenesis Research Information System (CCRIS), 2018).
